Test results from PubChem BioAssay AID330 (DTP/NCI, 2004).
Where “and” joins values, the source holds several entries; their conditions need not be identical. Equal entries are not always repeated. Inconclusive results and toxic doses are left out.

System: P388 leukemia ip, CD2F1 mice, survival T/C
Test: NCI In Vivo Anticancer Drug Screen. Data for tumor model P388 Leukemia (intraperitoneal) in CD2F1 (CDF1) mice
Details: endpoint: median survival time, higher = longer survival
Procedure, shortened: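 Mice carrying the transplanted tumor received test compound or vehicle. Survival was recorded in each group, and the value is the treated-group measurement divided by that of the vehicle-treated control group.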

[1] = dose: 50.0 mg/kg/injection, schedule: Q01DX005 (ip), vehicle: Klucel (hydroxypropylcellulose) (HPC)
[2] = dose: 100.0 mg/kg/injection, schedule: Q01DX005 (ip), vehicle: Klucel (hydroxypropylcellulose) (HPC)
[3] = dose: 200.0 mg/kg/injection, schedule: Q01DX005 (ip), vehicle: Klucel (hydroxypropylcellulose) (HPC)

SMILES: CCC[CH2][Sn]1([CH2]CCC)[O]C2C(CO)OC(n3ccc(N)nc3=O)C2[O]1 (stereo not given)
- T/C (dose: 0.3 mg/kg/injection, schedule: Q03HX015 (ip), vehicle: Klucel (hydroxypropylcellulose) (HPC)): 106 % of control
- T/C (dose: 0.44 mg/kg/injection, schedule: Q03HX015 (ip), vehicle: Klucel (hydroxypropylcellulose) (HPC)): 117 % of control
- T/C (dose: 0.67 mg/kg/injection, schedule: Q03HX015 (ip), vehicle: Klucel (hydroxypropylcellulose) (HPC)): 119 % of control and 121 % of control
- T/C (dose: 0.9 mg/kg/injection, schedule: Q01DX005 (ip), vehicle: Klucel (hydroxypropylcellulose) (HPC)): 109 % of control
- T/C (dose: 1.0 mg/kg/injection, schedule: Q03HX015 (ip), vehicle: Klucel (hydroxypropylcellulose) (HPC)): 123 % of control
- T/C (dose: 1.5 mg/kg/injection, schedule: Q03HX015 (ip), vehicle: Klucel (hydroxypropylcellulose) (HPC)): 120 % of control and 124 % of control
- T/C (dose: 1.56 mg/kg/injection, schedule: Q01DX009 (ip), vehicle: other): 102 % of control and 86 % of control
- T/C (dose: 2.0 mg/kg/injection, schedule: Q01DX005 (ip), vehicle: Klucel (hydroxypropylcellulose) (HPC)): 121 % of control
- T/C (dose: 3.0 mg/kg/injection, schedule: Q01DX005 (ip), vehicle: Klucel (hydroxypropylcellulose) (HPC)): 122 % of control
- T/C (dose: 3.12 mg/kg/injection, schedule: Q01DX009 (ip), vehicle: other): 97 % of control

SMILES: COc1ccc(C2SCC(=O)N2c2nnc(C(F)(F)F)s2)c(OC)c1OC (stereo not given)
- T/C (dose: 100.0 mg/kg/injection, schedule: Q04DX002 (ip), vehicle: saline with Tween-80): 100 % of control
- T/C (dose: 200.0 mg/kg/injection, schedule: Q04DX002 (ip), vehicle: saline with Tween-80): 90 % of control
- T/C (dose: 400.0 mg/kg/injection, schedule: Q04DX002 (ip), vehicle: saline with Tween-80): 93 % of control

SMILES: CC(=O)OCC1OC(n2c(Br)nc3c(N)ncnc32)C(OC(C)=O)C1OC(C)=O (stereo not given)
- T/C (dose: 50.0 mg/kg/injection, schedule: Q01DX005 (ip), vehicle: saline with Tween-80): 103 % of control
- T/C (dose: 100.0 mg/kg/injection, schedule: Q01DX005 (ip), vehicle: saline with Tween-80): 101 % of control
- T/C (dose: 200.0 mg/kg/injection, schedule: Q01DX005 (ip), vehicle: saline with Tween-80): 97 % of control

SMILES: C=C[C@H]1[C@H](OC2OC(CO)C(O)C(O)C2O)OC=C2C(=O)N3CCS[C@H]3C[C@H]21 (stereo not given in full)
- T/C (dose: 9.38 mg/kg/injection, schedule: Q01DX005 (ip), vehicle: Klucel (hydroxypropylcellulose) (HPC)): 97 % of control
- T/C (dose: 18.75 mg/kg/injection, schedule: Q01DX005 (ip), vehicle: Klucel (hydroxypropylcellulose) (HPC)): 98 % of control
- T/C (dose: 37.5 mg/kg/injection, schedule: Q01DX005 (ip), vehicle: Klucel (hydroxypropylcellulose) (HPC)): 107 % of control
- T/C (dose: 75.0 mg/kg/injection, schedule: Q01DX005 (ip), vehicle: Klucel (hydroxypropylcellulose) (HPC)): 95 % of control
- T/C (dose: 150.0 mg/kg/injection, schedule: Q01DX005 (ip), vehicle: Klucel (hydroxypropylcellulose) (HPC)): 98 % of control

SMILES: CS(=O)(=O)C#CCCCCCCC#CS(C)(=O)=O
- T/C (dose: 6.25 mg/kg/injection, schedule: Q04DX002 (ip), vehicle: saline): 104 % of control
- T/C (dose: 12.5 mg/kg/injection, schedule: Q04DX002 (ip), vehicle: saline): 97 % of control
- T/C (dose: 25.0 mg/kg/injection, schedule: Q04DX002 (ip), vehicle: saline): 102 % of control

SMILES: Cc1c2c(cc3c4ccccc4n(C)c13)C(=O)OC2=O
- T/C (dose: 0.78 mg/kg/injection, schedule: Q01DX005 (ip), vehicle: Klucel (hydroxypropylcellulose) (HPC)): 99 % of control
- T/C (dose: 1.56 mg/kg/injection, schedule: Q01DX005 (ip), vehicle: Klucel (hydroxypropylcellulose) (HPC)): 93 % of control
- T/C (dose: 3.12 mg/kg/injection, schedule: Q01DX005 (ip), vehicle: Klucel (hydroxypropylcellulose) (HPC)): 89 % of control
- T/C (dose: 6.25 mg/kg/injection, schedule: Q01DX005 (ip), vehicle: Klucel (hydroxypropylcellulose) (HPC)): 89 % of control
- T/C [1]: 89 % of control
- T/C [2]: 88 % of control
- T/C [3]: 97 % of control

SMILES: O=C(O)C(Cc1ccc([N+](=O)[O-])cc1)NCc1ccco1 (stereo not given)
- T/C (dose: 50.0 mg/kg/injection, schedule: Q01DX009 (ip), vehicle: saline with Tween-80): 119 % of control
- T/C (dose: 100.0 mg/kg/injection, schedule: Q01DX009 (ip), vehicle: saline with Tween-80): 119 % of control

SMILES: Oc1ccc(C2c3ccccc3Oc3ccccc32)c2cccnc12
- T/C [1]: 89 % of control
- T/C [2]: 89 % of control
- T/C [3]: 86 % of control

SMILES: CC(=O)N(C)c1ccc(Nc2cc(C)[nH]c3ccc4ncnc4c23)cc1
- T/C (dose: 5.0 mg/kg/injection, schedule: Q01DX005 (ip), vehicle: saline): 120 % of control and 122 % of control
- T/C (dose: 6.25 mg/kg/injection, schedule: Q01DX005 (iv), vehicle: saline): 100 % of control
- T/C (dose: 7.0 mg/kg/injection, schedule: Q01DX005 (ip), vehicle: saline): 121 % of control and 123 % of control
- T/C (dose: 11.0 mg/kg/injection, schedule: Q01DX005 (ip), vehicle: saline): 123 % of control
- T/C (dose: 12.5 mg/kg/injection, schedule: Q01DX001 (iv), vehicle: saline): 104 % of control
- T/C (dose: 12.5 mg/kg/injection, schedule: Q01DX005 (iv), vehicle: saline): 106 % of control
- T/C (dose: 12.5 mg/kg/injection, schedule: Q01DX005 (oral), vehicle: saline): 101 % of control
- T/C (dose: 12.5 mg/kg/injection, schedule: Q01DX009 (oral), vehicle: saline): 95 % of control
- T/C (dose: 25.0 mg/kg/injection, schedule: Q01DX001 (ip), vehicle: saline): 110 % of control
- T/C (dose: 25.0 mg/kg/injection, schedule: Q01DX001 (iv), vehicle: saline): 100 % of control
- T/C (dose: 25.0 mg/kg/injection, schedule: Q01DX001 (oral), vehicle: saline): 101 % of control
- T/C (dose: 25.0 mg/kg/injection, schedule: Q01DX005 (iv), vehicle: saline): 105 % of control
- T/C (dose: 25.0 mg/kg/injection, schedule: Q01DX005 (oral), vehicle: saline): 100 % of control
- T/C (dose: 25.0 mg/kg/injection, schedule: Q01DX009 (oral), vehicle: saline): 94 % of control
- T/C (dose: 50.0 mg/kg/injection, schedule: Q01DX001 (ip), vehicle: saline): 123 % of control
- T/C (dose: 50.0 mg/kg/injection, schedule: Q01DX001 (iv), vehicle: saline): 103 % of control
- T/C (dose: 50.0 mg/kg/injection, schedule: Q01DX001 (oral), vehicle: saline): 99 % of control
- T/C (dose: 50.0 mg/kg/injection, schedule: Q01DX005 (ip), vehicle: saline): 155 % of control
- T/C (dose: 50.0 mg/kg/injection, schedule: Q01DX005 (iv), vehicle: saline): 100 % of control
- T/C (dose: 50.0 mg/kg/injection, schedule: Q01DX005 (oral), vehicle: saline): 103 % of control
- T/C (dose: 50.0 mg/kg/injection, schedule: Q01DX009 (oral), vehicle: saline): 103 % of control
- T/C (dose: 90.0 mg/kg/injection, schedule: Q04DX002 (ip), vehicle: saline): 158 % of control
- T/C (dose: 100.0 mg/kg/injection, schedule: Q01DX001 (ip), vehicle: saline): 157 % of control
- T/C (dose: 100.0 mg/kg/injection, schedule: Q01DX001 (iv), vehicle: saline): 124 % of control
- T/C (dose: 100.0 mg/kg/injection, schedule: Q01DX001 (oral), vehicle: saline): 101 % of control
- T/C (dose: 100.0 mg/kg/injection, schedule: Q01DX005 (oral), vehicle: saline): 97 % of control
- T/C (dose: 100.0 mg/kg/injection, schedule: Q01DX009 (oral), vehicle: saline): 104 % of control
- T/C (dose: 200.0 mg/kg/injection, schedule: Q01DX001 (oral), vehicle: saline): 105 % of control
- T/C (dose: 200.0 mg/kg/injection, schedule: Q01DX005 (oral), vehicle: saline): 103 % of control
- T/C (dose: 200.0 mg/kg/injection, schedule: Q01DX009 (oral), vehicle: saline): 100 % of control
- T/C (dose: 300.0 mg/kg/injection, schedule: Q01DX001 (oral), vehicle: saline): 102 % of control
- T/C (dose: 300.0 mg/kg/injection, schedule: Q01DX005 (oral), vehicle: saline): 106 % of control
- T/C (dose: 400.0 mg/kg/injection, schedule: Q01DX001 (oral), vehicle: saline): 106 % of control
- T/C (dose: 600.0 mg/kg/injection, schedule: Q01DX001 (oral), vehicle: saline): 119 % of control
- T/C (dose: 600.0 mg/kg/injection, schedule: Q01DX005 (oral), vehicle: saline): 119 % of control
- T/C (dose: 1200.0 mg/kg/injection, schedule: Q01DX001 (oral), vehicle: saline): 119 % of control

SMILES: COc1cc([N+](=O)[O-])c(S(=O)(=O)O)cc1N
- T/C (dose: 60.0 mg/kg/injection, schedule: Q01DX005 (ip), vehicle: saline with Tween-80): 99 % of control
- T/C (dose: 120.0 mg/kg/injection, schedule: Q01DX005 (ip), vehicle: saline with Tween-80): 94 % of control
- T/C (dose: 240.0 mg/kg/injection, schedule: Q01DX005 (ip), vehicle: saline with Tween-80): 93 % of control
